Molecular target: T1, PPM1D (Mus musculus, UniProt Q9QZ67)
T1 construct: His-mousePPM1D (1–413)
T1 sequence (Q9QZ67 1-413): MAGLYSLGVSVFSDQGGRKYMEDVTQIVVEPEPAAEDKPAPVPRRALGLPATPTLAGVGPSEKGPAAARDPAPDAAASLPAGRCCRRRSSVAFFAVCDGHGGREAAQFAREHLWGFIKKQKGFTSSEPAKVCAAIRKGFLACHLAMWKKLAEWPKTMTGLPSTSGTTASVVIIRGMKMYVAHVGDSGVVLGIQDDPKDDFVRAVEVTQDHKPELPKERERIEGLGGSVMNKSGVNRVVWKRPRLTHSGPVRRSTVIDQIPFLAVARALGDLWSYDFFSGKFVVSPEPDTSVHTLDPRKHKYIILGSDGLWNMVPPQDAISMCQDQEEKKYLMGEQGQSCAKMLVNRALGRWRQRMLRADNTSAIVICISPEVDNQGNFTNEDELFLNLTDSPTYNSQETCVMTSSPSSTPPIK
Assay: in vitro phosphatase assay, released free phosphate by BIOMOL GREEN, p53-derived peptide substrate
Type: biochemical

CC[Si](CC)(CC)O[C@@H]1CCC[C@@H]2[C@@H]1C[C@H](O[Si](C)(C)C(C)(C)C)C[C@@]2(C)C(=O)O [SL-176]
IC50: 112 ± 12 nM
